Experimental data taken from patent publication US20260062422A1 (Halda Therapeutics OpCo, Inc., priority 2022, published 2026).

Legend:
VCaP cells = experiment: Cellular growth inhibition assay for VCaP cells, CellTiter-Glo; assay type: cell-based, human; conditions: 72 hours treatment, CellTiter-Glo 2.0
How it was run: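 GI50 values come from four-parameter curve fits of luminescence data normalized to a zero baseline. Compound, in medium with 0.5% DMSO, was added one day after plating and left for 72 h before CellTiter-Glo 2.0 addition.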

[1] = test system: T-Rex 293 cell line SC3 cells lacking increased expression of androgen receptor protein; experiment: Cellular growth inhibition, T-Rex 293 SC3 cells without doxycycline, CellTiter-Glo; assay type: cell-based; conditions: T-Rex 293 SC3 cells not exposed to doxycycline, CellTiter-Glo 2.0
How it was run: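 Growth inhibition was compared in a T-Rex 293 clone with and without doxycycline (10 ng/mL)-driven androgen receptor overexpression. Compounds were applied for 72 h in hormone-depleted serum, and GI50 came from four-parameter curves of CellTiter-Glo signal.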

Row | GI50 (VCaP cells; Homo sapiens, VCaP, 72 h) [nM] | Compound | GI50 ([1]; 72 h) [nM] | GI50 (VCaP cells) [nM] | GI50 ([1]; 72 hours) [nM]
1 | < 500 | Cc1sc2c(c1C)C(c1ccc(OC3CC4(C3)CC3(CCN(c5ncc(C(=O)N[C@H]6C(C)(C)[C@H](Oc7ccc(C#N)c(Cl)c7)C6(C)C)cn5)CC3)C4)cc1)=N[C@@H](Cc1ncco1)c1nnc(C)n1-2 [Compound I-283] | > 3000 | – | –
2 | < 500 | Cc1sc2c(c1C)C(c1ccc(CC3CN(CC4CCN(c5ncc(C(=O)N[C@H]6C(C)(C)[C@H](Oc7ccc(C#N)c(Cl)c7)C6(C)C)cn5)CC4)C3)cc1)=N[C@@H](Cc1ncco1)c1nnc(C)n1-2 [Compound I-153] | 500 to 1500 | – | –
3 | 500 to 1500 | CCNC(=O)C[C@@H]1N=C(c2ccc(OCCOC3CCN(c4ncc(C(=O)N[C@H]5C(C)(C)[C@H](Oc6ccc(C#N)c(Cl)c6)C5(C)C)cn4)CC3)cc2)c2c(sc(C)c2C)-n2c(C)nnc21 [Compound I-60, N-((1r,3r)-3-(3-chloro-4-cyanophenoxy)-2,2,4,4-tetramethylcyclobutyl)-2-(4-(2-(4-((S)-6-(2-(ethylamino)-2-oxoethyl)-2,3,9-trimethyl-6H-thieno[3,2-f][1,2,4]triazolo[4,3-a][1,4]diazepin-4-yl)phenoxy)ethoxy)piperidin-1-yl)pyrimidine-5-carboxamide] | < 500 | – | –
4 | < 500 | Cc1sc2c(c1C)C(c1ccc(CCCOC3CCN(c4ncc(C(=O)N[C@H]5C(C)(C)[C@H](Oc6ccc(C#N)c(Cl)c6)C5(C)C)cn4)CC3)cc1)=N[C@@H](CC(=O)NC1CC1)c1nnc(C)n1-2 [Compound I-102] | > 3000 | – | –
5 | 1500 to 3000 | CCNC(=O)C[C@@H]1N=C(c2ccc(CCCC3CCN(c4ncc(C(=O)N[C@H]5C(C)(C)[C@H](Oc6ccc(C#N)c(Cl)c6)C5(C)C)cn4)CC3)cc2)c2c(sc(C)c2C)-n2c(C)nnc21 [Compound I-95] | < 500 | – | –
6 | – | Cc1sc2c(c1C)C(c1ccc(Cl)cc1)=N[C@@H](CC(=O)NCCCCCOC1CCN(c3ncc(C(=O)N[C@H]4C(C)(C)[C@H](Oc5ccc(C#N)c(Cl)c5)C4(C)C)cn3)CC1)c1nnc(C)n1-2 [Compound I-22, N-((1r,3r)-3-(3-chloro-4-cyanophenoxy)-2,2,4,4-tetramethylcyclobutyl)-2-(4-((5-(2-((S)-4-(4-chlorophenyl)-2,3,9-trimethyl-6H-thieno[3,2-A][1,2,4]triazolo[4,3-a][1,4]diazepin-6-yl)acetamido)pentyl)oxy)piperidin-1-yl)pyrimidine-5-carboxamide] | – | < 500 | > 3000
7 | > 3000 | Cc1sc2c(c1C)C(c1ccc(C#CCN3CCN(c4ncc(C(=O)N[C@H]5C(C)(C)[C@H](Oc6ccc(C#N)c(Cl)c6)C5(C)C)cn4)CC3)cc1)=N[C@@H](CC(=O)OC(C)(C)C)c1nnc(C)n1-2 [Compound I-55] | > 3000 | – | –
8 | < 500 | Cc1sc2c(c1C)C(c1ccc(Cl)cc1)=N[C@@H](CC(=O)NCCOCCOCCOCCOC1CCN(c3ncc(C(=O)N[C@H]4C(C)(C)[C@H](Oc5ccc(C#N)c(Cl)c5)C4(C)C)cn3)CC1)c1nnc(C)n1-2 [Compound I-11] | 1500 to 3000 | – | –
9 | < 500 | CCNC(=O)C[C@@H]1N=C(c2ccc(OCCCN(C)c3ncc(C(=O)N[C@H]4C(C)(C)[C@H](Oc5ccc(C#N)c(Cl)c5)C4(C)C)cn3)cc2)c2c(sc(C)c2C)-n2c(C)nnc21 [Compound I-81] | 500 to 1500 | – | –
10 | < 500 | CCNC(=O)C[C@@H]1N=C(c2ccc(C#CCN3CCN(c4ncc(C(=O)N[C@H]5C(C)(C)[C@H](Oc6ccc(C#N)c(Cl)c6)C5(C)C)cn4)CC3)cc2)c2c(sc(C)c2C)-n2c(C)nnc21 [Compound I-54, N-[3-(3-chloro-4-cyano-phenoxy)-2,2,4,4-tetramethyl-cyclobutyl]-2-[4-[3-[4-[(9S)-9-[2-(ethylamino)-2-oxo-ethyl]-4,5,13-trimethyl-3-thia-1,8,11,12-tetrazatricyclo[8.3.0.02,6]trideca-2(6),4,7,10,12-pentaen-7-yl]phenyl]prop-2-ynyl]piperazin-1-yl]pyrimidine-5-carboxamide] | 500 to 1500 | – | –
11 | < 500 | Cc1sc2c(c1C)C(c1ccc(Cl)cc1)=N[C@@H](CC(=O)NCCCN1CCN(CCCOC3CCN(c4ncc(C(=O)N[C@H]5C(C)(C)[C@H](Oc6ccc(C#N)c(Cl)c6)C5(C)C)cn4)CC3)CC1)c1nnc(C)n1-2 [Compound I-10] | 1500 to 3000 | – | –
12 | < 500 | CCNC(=O)C[C@@H]1N=C(c2ccc(N3CCC(N(C)C4CCN(c5ncc(C(=O)N[C@H]6C(C)(C)[C@H](Oc7ccc(C#N)c(Cl)c7)C6(C)C)cn5)CC4)CC3)cc2)c2c(sc(C)c2C)-n2c(C)nnc21 [Compound I-113] | 1500 to 3000 | – | –
13 | < 500 | Cc1sc2c(c1C)C(c1ccc(CCCOC3CCN(c4ncc(C(=O)N[C@H]5C(C)(C)[C@H](Oc6ccc(C#N)c(Cl)c6)C5(C)C)cn4)CC3)cc1)=N[C@@H](C)c1nnc(C)n1-2 [Compound I-228, N-[3-(3-chloro-4-cyano-phenoxy)-2,2,4,4-tetramethyl-cyclobutyl]-2-[4-[3-[4-[(9S)-4,5,9,13-tetramethyl-3-thia-1,8,11,12-tetrazatricyclo [8.3.0.02,6]trideca-2(6),4,7,10,12-pentaen-7-yl]phenyl]propoxy]-1-piperidyl]pyrimidine-5-carboxamide] | 500 to 1500 | – | –
14 | < 500 | Cc1sc2c(c1C)C(c1ccc(C3CC3C3CC4(CCN(c5ncc(C(=O)N[C@H]6C(C)(C)[C@H](Oc7ccc(C#N)c(Cl)c7)C6(C)C)cn5)CC4)C3)cc1)=N[C@@H](Cc1ncco1)c1nnc(C)n1-2 (stereo partly shown) [Compound I-237] | > 3000 | – | –
15 | < 500 | CCNC(=O)C[C@@H]1N=C(c2cccc(OCCOCCOCCOC3CCN(c4ncc(C(=O)N[C@H]5C(C)(C)[C@H](Oc6ccc(C#N)c(Cl)c6)C5(C)C)cn4)CC3)c2)c2c(sc(C)c2C)-n2c(C)nnc21 [Compound I-48, N-((1r,3r)-3-(3-chloro-4-cyanophenoxy)-2,2,4,4-tetramethylcyclobutyl)-2-(4-(2-(2-(2-(3-((S)-6-(2-(ethylamino)-2-oxoethyl)-2,3,9-trimethyl-6H-thieno[3,2-f][1,2,4]triazolo[4,3-a][1,4]diazepin-4-yl)phenoxy)ethoxy)ethoxy)ethoxy)piperidin-1-yl)pyrimidine-5-carboxamide] | 500 to 1500 | – | –
16 | 500 to 1500 | Cc1sc2c(c1C)C(c1ccc(Cl)cc1)=N[C@@H](CC(=O)NCCCN1CCN(CC3CCN(c4ncc(C(=O)N[C@H]5C(C)(C)[C@H](Oc6ccc(C#N)c(Cl)c6)C5(C)C)cn4)CC3)CC1)c1nnc(C)n1-2 [Compound I-36, N-((1r,3r)-3-(3-chloro-4-cyanophenoxy)-2,2,4,4-tetramethylcyclobutyl)-2-(4-((4-(3-(2-((S)-4-(4-chlorophenyl)-2,3,9-trimethyl-6H-thieno[3,2-f][1,2,4]triazolo[4,3-a][1,4]diazepin-6-yl)acetamido)propyl)piperazin-1-yl)methyl)piperidin-1-yl)pyrimidine-5-carboxamide] | 500 to 1500 | – | –
17 | > 3000 | Cc1sc2c(c1C)C(c1ccc(Cl)cc1)=N[C@H](CC(=O)NCCOCCOCCOCCOCCOC1CCN(c3ncc(C(=O)N[C@H]4C(C)(C)[C@H](Oc5ccc(C#N)c(Cl)c5)C4(C)C)cn3)CC1)c1nnc(C)n1-2 [Compound I-14] | > 3000 | – | –
18 | < 500 | Cc1sc2c(c1C)C(c1ccc(Cl)cc1)=N[C@H](CC(=O)NCCOCCOCCOCCOCCOCCOCCOC1CCN(c3ncc(C(=O)N[C@H]4C(C)(C)[C@H](Oc5ccc(C#N)c(Cl)c5)C4(C)C)cn3)CC1)c1nnc(C)n1-2 [Compound I-9] | 1500 to 3000 | – | –
19 | < 500 | CCNC(=O)C[C@@H]1N=C(c2ccc(OCCOC3CCN(c4ncc(C(=O)N[C@H]5C(C)(C)[C@H](Oc6ccc(C#N)c(Cl)c6)C5(C)C)cn4)CC3)c(F)c2F)c2c(sc(C)c2C)-n2c(C)nnc21 [Compound I-73] | 500 to 1500 | – | –
20 | > 3000 | Cc1sc2c(c1C)C(c1ccc(OCCOC3CCN(c4ncc(C(=O)N[C@H]5C(C)(C)[C@H](Oc6ccc(C#N)c(Cl)c6)C5(C)C)cn4)CC3)cc1)=N[C@@H](CC(=O)O)c1nnc(C)n1-2 [Compound I-38] | > 3000 | – | –
21 | 500 to 1500 | Cc1sc2c(c1C)C(c1ccc(O[C@H]3CC[C@@]4(CCCN(c5ncc(C(=O)N[C@H]6C(C)(C)[C@H](Oc7ccc(C#N)c(Cl)c7)C6(C)C)cn5)C4)CC3)cc1)=N[C@@H](Cc1ncco1)c1nnc(C)n1-2 [Compound I-172] | 500 to 1500 | – | –
22 | < 500 | Cc1sc2c(c1C)C(c1ccc(CCCOC3CCN(c4ncc(C(=O)N[C@H]5C(C)(C)[C@H](Oc6ccc(C#N)c(Cl)c6)C5(C)C)cn4)CC3)cc1)=N[C@@H](Cc1ncco1)c1nnc(C)n1-2 [Compound I-131, N-[3-(3-chloro-4-cyano-phenoxy)-2,2,4,4-tetramethyl-cyclobutyl]-2-[4-[3-[4-[(9S)-4,5,13-trimethyl-9-(oxazol-2-ylmethyl)-3-thia-1,8,11,12-tetrazatricyclo[8.3.0.02,6]trideca-2(6),4,7,10,12-pentaen-7-yl]phenyl]propoxy]-1-piperidyl]pyrimidine-5-carboxamide] | < 500 | – | –
23 | < 500 | CCNC(=O)C[C@@H]1N=C(c2ccc(N3CCN(CC4CCN(c5ncc(C(=O)N[C@H]6C(C)(C)[C@H](Oc7ccc(C#N)c(Cl)c7)C6(C)C)cn5)CC4)CC3)cc2)c2c(sc(C)c2C)-n2c(C)nnc21 [Compound I-105, N-[3-(3-chloro-4-cyano-phenoxy)-2,2,4,4-tetramethyl-cyclobutyl]-2-[4-[[4-[4-[(9S)-9-[2-(ethylamino)-2-oxo-ethyl]-4,5,13-trimethyl-3-thia-1,8,11,12-tetrazatricyclo[8.3.0.02,6]trideca-2(6),4,7,10,12-pentaen-7-yl]phenyl]piperazin-1-yl]methyl]-1-piperidyl]pyrimidine-5-carboxamide] | < 500 | – | –
